Among the data in patent US9340590B2 (priority 2011, dated 2016) are IC50 values, retold here.

Each structure is given as a SMILES string. Where two headings read alike, the source gives them in different places. Positions of bridges follow the written chain, without caps; N, C: chain ends. Non-standard residues stand in square brackets, D forms with d. Residues, ends and D or L forms follow the SMILES beside them. *: point of attachment. Bpa = N[C@@H](Cc1ccc(C(=O)c2ccccc2)cc1)C(=O)O; Pent4ynoyl = C#CCCC(=O)*; Abu = CC[C@H](N)C(=O)O

What all share (assay): cell-based
One experiment addresses hNav1.7 (Homo sapiens, UniProt Q15858). The experiment is classed as cell-based. The conditions noted are these: IonWorks Quattro, hNav1.7, read-out: IWQ Use Nav1.7.
In a further experiment the target is hNav1.3 (Homo sapiens, UniProt Q9NY46). The conditions noted are these: IonWorks Quattro, hNav1.3, read-out: IWQ Use Nav1.3.
The target in another experiment is hNav1.5 (Homo sapiens, UniProt Q14524). The conditions noted are these: IonWorks Quattro, hNav1.5, read-out: IWQ Use Nav1.5.
hNav1.5, sequence (Q14524 whole entry, looked up): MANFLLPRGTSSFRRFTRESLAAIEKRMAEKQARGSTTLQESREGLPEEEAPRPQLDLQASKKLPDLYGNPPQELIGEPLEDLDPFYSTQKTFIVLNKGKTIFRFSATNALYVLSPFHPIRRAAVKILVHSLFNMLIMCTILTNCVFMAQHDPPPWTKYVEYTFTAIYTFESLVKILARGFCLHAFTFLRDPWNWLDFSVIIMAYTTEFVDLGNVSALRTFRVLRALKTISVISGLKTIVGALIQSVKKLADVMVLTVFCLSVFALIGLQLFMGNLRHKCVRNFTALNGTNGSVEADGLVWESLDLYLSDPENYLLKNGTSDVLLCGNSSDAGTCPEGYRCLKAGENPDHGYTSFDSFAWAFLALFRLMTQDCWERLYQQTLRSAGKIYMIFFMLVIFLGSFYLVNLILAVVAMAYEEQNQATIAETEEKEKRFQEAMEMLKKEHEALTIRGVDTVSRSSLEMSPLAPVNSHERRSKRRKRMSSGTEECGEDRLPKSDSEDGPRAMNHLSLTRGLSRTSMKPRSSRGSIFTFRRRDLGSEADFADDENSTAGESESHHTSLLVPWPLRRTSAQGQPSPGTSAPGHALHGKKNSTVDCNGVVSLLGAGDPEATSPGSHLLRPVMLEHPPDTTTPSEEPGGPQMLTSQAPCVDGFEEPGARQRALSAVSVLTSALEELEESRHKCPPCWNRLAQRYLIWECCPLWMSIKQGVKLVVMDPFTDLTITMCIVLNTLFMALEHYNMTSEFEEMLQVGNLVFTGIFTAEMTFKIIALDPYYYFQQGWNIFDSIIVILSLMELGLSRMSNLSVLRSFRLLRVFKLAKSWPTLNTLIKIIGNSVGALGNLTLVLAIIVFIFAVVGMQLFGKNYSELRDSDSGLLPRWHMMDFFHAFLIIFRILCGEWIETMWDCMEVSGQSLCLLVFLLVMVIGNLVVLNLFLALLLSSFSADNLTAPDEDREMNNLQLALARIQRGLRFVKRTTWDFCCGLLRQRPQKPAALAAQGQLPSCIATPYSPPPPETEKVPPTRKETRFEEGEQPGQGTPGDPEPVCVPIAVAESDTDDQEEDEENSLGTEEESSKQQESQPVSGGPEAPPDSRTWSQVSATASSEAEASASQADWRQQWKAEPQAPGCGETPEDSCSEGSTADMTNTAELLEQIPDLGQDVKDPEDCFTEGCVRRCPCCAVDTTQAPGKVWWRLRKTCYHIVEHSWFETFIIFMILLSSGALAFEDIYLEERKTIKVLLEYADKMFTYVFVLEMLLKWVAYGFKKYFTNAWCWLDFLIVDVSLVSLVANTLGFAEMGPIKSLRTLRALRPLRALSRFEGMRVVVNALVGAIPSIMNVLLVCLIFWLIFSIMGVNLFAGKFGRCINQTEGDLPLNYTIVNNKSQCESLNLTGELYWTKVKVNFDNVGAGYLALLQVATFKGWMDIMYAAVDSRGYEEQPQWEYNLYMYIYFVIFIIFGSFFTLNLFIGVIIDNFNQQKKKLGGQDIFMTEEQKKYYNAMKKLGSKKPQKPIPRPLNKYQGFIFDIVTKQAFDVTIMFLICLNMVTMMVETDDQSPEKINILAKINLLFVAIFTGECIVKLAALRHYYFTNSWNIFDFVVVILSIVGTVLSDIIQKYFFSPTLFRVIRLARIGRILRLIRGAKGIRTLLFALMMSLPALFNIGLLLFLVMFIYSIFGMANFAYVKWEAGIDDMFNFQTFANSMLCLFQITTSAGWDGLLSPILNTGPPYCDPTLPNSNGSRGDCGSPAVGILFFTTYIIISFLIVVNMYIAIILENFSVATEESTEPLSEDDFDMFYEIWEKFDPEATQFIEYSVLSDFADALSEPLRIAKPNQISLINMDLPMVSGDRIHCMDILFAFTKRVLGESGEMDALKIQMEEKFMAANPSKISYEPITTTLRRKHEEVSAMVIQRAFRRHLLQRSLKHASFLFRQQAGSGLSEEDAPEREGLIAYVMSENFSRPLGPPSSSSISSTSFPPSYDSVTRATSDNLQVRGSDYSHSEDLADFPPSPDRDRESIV

hNav1.3, sequence (Q9NY46 whole entry, looked up): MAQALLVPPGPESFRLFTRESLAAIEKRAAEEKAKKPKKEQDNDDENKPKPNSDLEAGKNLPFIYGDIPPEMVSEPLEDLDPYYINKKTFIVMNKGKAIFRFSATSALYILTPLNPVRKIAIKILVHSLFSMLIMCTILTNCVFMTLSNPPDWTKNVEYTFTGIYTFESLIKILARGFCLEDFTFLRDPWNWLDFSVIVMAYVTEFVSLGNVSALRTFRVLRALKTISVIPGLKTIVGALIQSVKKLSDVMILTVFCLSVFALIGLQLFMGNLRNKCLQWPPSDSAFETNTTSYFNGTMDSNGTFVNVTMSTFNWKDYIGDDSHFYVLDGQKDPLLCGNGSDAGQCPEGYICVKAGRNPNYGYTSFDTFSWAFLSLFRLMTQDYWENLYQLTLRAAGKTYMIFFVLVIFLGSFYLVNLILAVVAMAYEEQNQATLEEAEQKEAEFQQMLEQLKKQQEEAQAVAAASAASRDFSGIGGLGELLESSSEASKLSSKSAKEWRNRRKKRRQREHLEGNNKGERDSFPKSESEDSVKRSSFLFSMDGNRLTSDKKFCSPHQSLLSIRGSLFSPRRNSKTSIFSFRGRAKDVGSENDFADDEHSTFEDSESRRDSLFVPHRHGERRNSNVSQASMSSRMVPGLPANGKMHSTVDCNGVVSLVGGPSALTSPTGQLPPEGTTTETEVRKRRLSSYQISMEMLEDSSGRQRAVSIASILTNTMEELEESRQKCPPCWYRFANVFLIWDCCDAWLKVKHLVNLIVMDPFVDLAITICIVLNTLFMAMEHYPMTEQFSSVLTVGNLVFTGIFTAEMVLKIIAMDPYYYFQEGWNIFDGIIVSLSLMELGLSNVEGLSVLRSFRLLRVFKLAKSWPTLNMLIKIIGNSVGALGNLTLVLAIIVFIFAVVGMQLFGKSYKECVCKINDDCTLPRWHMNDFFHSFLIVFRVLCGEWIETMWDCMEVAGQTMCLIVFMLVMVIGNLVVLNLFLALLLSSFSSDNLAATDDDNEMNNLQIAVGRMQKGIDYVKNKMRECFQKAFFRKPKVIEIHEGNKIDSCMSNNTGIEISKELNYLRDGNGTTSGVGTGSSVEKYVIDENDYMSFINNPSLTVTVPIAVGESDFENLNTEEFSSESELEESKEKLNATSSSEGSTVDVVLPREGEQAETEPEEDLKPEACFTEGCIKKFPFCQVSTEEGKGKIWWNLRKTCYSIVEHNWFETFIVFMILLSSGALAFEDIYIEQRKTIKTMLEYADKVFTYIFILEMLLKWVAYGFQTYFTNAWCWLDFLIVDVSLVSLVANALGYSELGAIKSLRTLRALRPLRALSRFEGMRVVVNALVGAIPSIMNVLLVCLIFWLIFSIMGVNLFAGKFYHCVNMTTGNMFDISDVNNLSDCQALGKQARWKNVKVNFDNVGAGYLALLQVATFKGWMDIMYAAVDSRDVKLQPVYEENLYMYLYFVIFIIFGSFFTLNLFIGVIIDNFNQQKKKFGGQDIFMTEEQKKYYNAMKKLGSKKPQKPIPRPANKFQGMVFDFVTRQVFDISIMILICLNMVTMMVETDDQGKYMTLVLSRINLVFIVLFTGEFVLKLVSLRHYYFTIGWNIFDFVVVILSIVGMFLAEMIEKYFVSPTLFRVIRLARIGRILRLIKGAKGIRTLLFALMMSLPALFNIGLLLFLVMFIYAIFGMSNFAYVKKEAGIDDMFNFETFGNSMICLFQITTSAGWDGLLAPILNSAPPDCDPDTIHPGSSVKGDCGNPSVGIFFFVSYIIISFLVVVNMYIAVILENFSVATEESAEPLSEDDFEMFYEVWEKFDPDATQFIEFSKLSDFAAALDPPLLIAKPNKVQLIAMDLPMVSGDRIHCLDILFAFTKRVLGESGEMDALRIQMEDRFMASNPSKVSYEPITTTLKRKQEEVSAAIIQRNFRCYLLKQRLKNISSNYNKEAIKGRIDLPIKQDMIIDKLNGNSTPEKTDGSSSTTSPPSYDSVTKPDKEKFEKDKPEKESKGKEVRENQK

Consider `CC[C@H](C)[C@@H]1NC(=O)[C@@H]2CSSC[C@@H]3NC(=O)[C@H](C(C)C)NC(=O)[C@H](CC(C)C)NC(=O)[C@H](CC(N)=O)NC(=O)[C@@H]4CCCN4C(=O)[C@H](CCCNC(=N)N)NC(=O)[C@H](CSSC[C@H](NC(=O)[C@@H](N)CC(=O)O)C(=O)N[C@@H](CC(C)C)C(=O)NCC(=O)N[C@@H](Cc4ccc(C(=O)c5ccccc5)cc4)C(=O)N[C@@H](Cc4ccccc4)C(=O)N[C@@H](CCCNC(=N)N)C(=O)N[C@@H](CCCCN)C(=O)N2)NC(=O)[C@H](CSSC[C@@H](C(=O)N[C@@H](CCCCN)C(=O)N[C@@H](Cc2ccc(O)cc2)C(=O)N[C@H](C(=O)N[C@@H](Cc2ccccc2)C(N)=O)C(C)C)NC(=O)[C@H](Cc2c[nH]c4ccccc24)NC(=O)[C@H](CCCCN)NC(=O)[C@H](Cc2c[nH]cn2)NC(=O)[C@H]([C@@H](C)O)NC(=O)[C@H](CCCNC(=N)N)NC(=O)[C@H](CO)NC3=O)NC(=O)[C@H](CCCCN)NC(=O)[C@H](CC(=O)O)NC(=O)[C@H](CC(N)=O)NC(=O)[C@H](CC(=O)O)NC(=O)[C@@H]2CCCN2C1=O` [compound 619] (H-DCLG[Bpa]FRKCIPDNDKCCRPNLVCSRTHKWCKYVF-NH2; disulfide 2-17, 9-23, 16-30), for which the values for the IC50 on hNav1.7 (use-dependent protocol), at hNav1.3 (use-dependent protocol) and on hNav1.5 (use-dependent protocol) were 0.14 µM, 0.042 µM and 7.7 µM, respectively.

With `CC[C@H](C)[C@@H]1NC(=O)[C@@H]2CSSC[C@@H]3NC(=O)[C@H](C(C)C)NC(=O)[C@H](CC(C)C)NC(=O)[C@H](CC(N)=O)NC(=O)[C@@H]4CCCN4C(=O)[C@H](CCCNC(=N)N)NC(=O)[C@H](CSSC[C@H](NC(=O)[C@@H](N)CC(=O)O)C(=O)N[C@@H](CC(C)C)C(=O)NCC(=O)N[C@@H](C)C(=O)N[C@@H](Cc4ccccc4)C(=O)N[C@@H](CCCNC(=N)N)C(=O)N[C@@H](CCCCN)C(=O)N2)NC(=O)[C@H](CSSC[C@@H](C(=O)N[C@@H](CCCCN)C(=O)N[C@@H](Cc2ccc(O)cc2)C(=O)N[C@H](C(=O)N[C@@H](Cc2ccccc2)C(=O)O)C(C)C)NC(=O)[C@H](Cc2c[nH]c4ccccc24)NC(=O)[C@H](CCCNC(=N)N)NC(=O)[C@H](Cc2c[nH]cn2)NC(=O)[C@H]([C@@H](C)O)NC(=O)[C@H](CCCNC(=N)N)NC(=O)[C@H](CO)NC3=O)NC(=O)[C@H](CCCCN)NC(=O)[C@H](CC(=O)O)NC(=O)[C@H](CCSC)NC(=O)[C@H](CC(=O)O)NC(=O)[C@@H]2CCCN2C1=O` [compound 845], the IC50 at hNav1.7 (use-dependent block) was 4.7 µM; at hNav1.3 (use-dependent block) it was 0.8 µM; on hNav1.5 (use-dependent block), > 5 µM.

In the case of `CC[C@H](C)[C@@H]1NC(=O)[C@@H]2CSSC[C@@H]3NC(=O)[C@H](C(C)C)NC(=O)[C@H](CC(C)C)NC(=O)[C@H](CC(N)=O)NC(=O)[C@@H]4CCCN4C(=O)[C@H](CCCNC(=N)N)NC(=O)[C@H](CSSC[C@H](NC(=O)[C@@H](N)CC(=O)O)C(=O)N[C@@H](CC(C)C)C(=O)NCC(=O)N[C@@H](C)C(=O)N[C@@H](Cc4ccccc4)C(=O)N[C@@H](CCCNC(=N)N)C(=O)N[C@@H](CCCCN)C(=O)N2)NC(=O)[C@H](CSSC[C@@H](C(=O)N[C@@H](CCCCN)C(=O)N[C@@H](Cc2ccc(O)cc2)C(=O)N[C@H](C(=O)N[C@@H](Cc2ccccc2)C(=O)O)C(C)C)NC(=O)[C@H](Cc2c[nH]c4ccccc24)NC(=O)[C@H](CCCNC(=N)N)NC(=O)[C@H](Cc2c[nH]cn2)NC(=O)[C@H]([C@@H](C)O)NC(=O)[C@H](CCCNC(=N)N)NC(=O)[C@H](CO)NC3=O)NC(=O)[C@H](CCCCN)NC(=O)[C@H](CC(=O)O)NC(=O)[C@H](C(C)C)NC(=O)[C@H](CC(=O)O)NC(=O)[C@@H]2CCCN2C1=O` [compound 851], the IC50 is > 5 µM at hNav1.7 (use-dependent block), 1.7 µM on hNav1.3 (use-dependent block) and > 5 µM on hNav1.5 (use-dependent block).

Consider `CC[C@H](C)[C@@H]1NC(=O)[C@@H]2CSSC[C@@H]3NC(=O)[C@H](C(C)C)NC(=O)[C@H](CC(C)C)NC(=O)[C@H](CC(N)=O)NC(=O)[C@@H]4CCCN4C(=O)[C@H](CCCNC(=N)N)NC(=O)[C@H](CSSC[C@H](NC(=O)[C@@H](N)CC(=O)O)C(=O)N[C@@H](CC(C)C)C(=O)NCC(=O)N[C@@H](CC(C)C)C(=O)N[C@@H](CC(C)C)C(=O)N[C@@H](CCCNC(=N)N)C(=O)N[C@@H](CCCCN)C(=O)N2)NC(=O)[C@H](CSSC[C@@H](C(=O)N[C@@H](CCCCN)C(=O)N[C@@H](Cc2ccc(O)cc2)C(=O)N[C@H](C(=O)N[C@@H](Cc2ccccc2)C(N)=O)C(C)C)NC(=O)[C@H](Cc2c[nH]c4ccccc24)NC(=O)[C@H](CCCCN)NC(=O)[C@H](Cc2c[nH]cn2)NC(=O)[C@H]([C@@H](C)O)NC(=O)[C@H](CCCNC(=N)N)NC(=O)[C@H](CO)NC3=O)NC(=O)[C@H](CCCCN)NC(=O)[C@H](CC(=O)O)NC(=O)[C@H](CC(N)=O)NC(=O)[C@H](CC(=O)O)NC(=O)[C@@H]2CCCN2C1=O` [compound 661] (H-DCLGLLRKCIPDNDKCCRPNLVCSRTHKWCKYVF-NH2; disulfide 2-17, 9-23, 16-30), for which the IC50 at hNav1.7 (use-dependent protocol) is 0.095 µM; at hNav1.3 (use-dependent protocol) it was 0.32 µM; on hNav1.5 (use-dependent protocol) it was > 5 µM.

On to `CC[C@H](C)[C@@H]1NC(=O)[C@@H]2CSSC[C@@H]3NC(=O)[C@H](C(C)C)NC(=O)[C@H](CC(C)C)NC(=O)[C@H](CC(N)=O)NC(=O)[C@@H]4CCCN4C(=O)[C@H](CCCNC(=N)N)NC(=O)[C@H](CSSC[C@H](NC(=O)[C@@H](N)CC(=O)O)C(=O)N[C@@H](CC(C)C)C(=O)NCC(=O)N[C@@H](C)C(=O)N[C@@H](CC(C)C)C(=O)N[C@@H](CCCNC(=N)N)C(=O)N[C@@H](CCCCN)C(=O)N2)NC(=O)[C@H](CSSC[C@@H](C(=O)N[C@@H](CCCCN)C(=O)N[C@@H](Cc2ccc(O)cc2)C(=O)N[C@H](C(=O)N[C@@H](Cc2ccccc2)C(=O)O)C(C)C)NC(=O)[C@H](Cc2c[nH]c4ccccc24)NC(=O)[C@H](CCSC)NC(=O)[C@H](Cc2c[nH]cn2)NC(=O)[C@H]([C@@H](C)O)NC(=O)[C@H](CCCNC(=N)N)NC(=O)[C@H](CO)NC3=O)NC(=O)[C@H](CCCCN)NC(=O)[C@H](CC(=O)O)NC(=O)[C@H](CC(N)=O)NC(=O)[C@H](CC(=O)O)NC(=O)[C@@H]2CCCN2C1=O` [compound 857] (H-DCLGALRKCIPDNDKCCRPNLVCSRTHMWCKYVF-OH; disulfide 2-17, 9-23, 16-30), for which the IC50 at hNav1.7 (use-dependent block), at hNav1.3 (use-dependent block) and at hNav1.5 (use-dependent block) was > 5 µM each time.

Consider `CC[C@H](C)[C@@H]1NC(=O)[C@@H]2CSSC[C@@H]3NC(=O)[C@H](C(C)C)NC(=O)[C@H](CC(C)C)NC(=O)[C@H](CC(N)=O)NC(=O)[C@@H]4CCCN4C(=O)[C@H](CCCNC(=N)N)NC(=O)[C@H](CSSC[C@H](NC(=O)[C@@H](N)CC(=O)O)C(=O)N[C@@H](CC(C)C)C(=O)NCC(=O)N[C@@H](Cc4ccccc4)C(=O)N[C@@H](CCSC)C(=O)N[C@@H](CCCNC(N)=O)C(=O)N[C@@H](CCCCN)C(=O)N2)NC(=O)[C@H](CSSC[C@@H](C(=O)N[C@@H](CCCCN)C(=O)N[C@@H](Cc2ccc(O)cc2)C(=O)N[C@H](C(=O)N[C@@H](Cc2ccccc2)C(N)=O)C(C)C)NC(=O)[C@H](Cc2c[nH]c4ccccc24)NC(=O)[C@H](CCCCN)NC(=O)[C@H](Cc2c[nH]cn2)NC(=O)[C@H]([C@@H](C)O)NC(=O)[C@H](CCCNC(=N)N)NC(=O)[C@H](CO)NC3=O)NC(=O)[C@H](CCCCN)NC(=O)[C@H](CC(=O)O)NC(=O)[C@H](CC(N)=O)NC(=O)[C@H](CC(=O)O)NC(=O)[C@@H]2CCCN2C1=O` [[Cit7]GpTx-1(1-34)], for which the values for the IC50 at hNav1.7 (use-dependent block), on hNav1.3 (use-dependent block) and on hNav1.5 (use-dependent block) were 0.63 µM, 0.56 µM and 14.4 µM, respectively.

On to `CC[C@H](C)[C@@H]1NC(=O)[C@@H]2CSSC[C@@H]3NC(=O)[C@H](C(C)C)NC(=O)[C@H](CC(C)C)NC(=O)[C@H](CC(N)=O)NC(=O)[C@@H]4CCCN4C(=O)[C@H](CCCNC(=N)N)NC(=O)[C@H](CSSC[C@H](NC(=O)[C@@H](N)CC(=O)O)C(=O)N[C@@H](CC(C)C)C(=O)NCC(=O)N[C@@H](C)C(=O)N[C@@H](CCSC)C(=O)N[C@@H](CCCNC(=N)N)C(=O)N[C@@H](CCCCN)C(=O)N2)NC(=O)[C@H](CSSC[C@@H](C(=O)N[C@@H](CCCCN)C(=O)N[C@@H](Cc2ccc(O)cc2)C(=O)N[C@H](C(=O)N[C@@H](Cc2ccccc2)C(N)=O)C(C)C)NC(=O)[C@H](C)NC(=O)[C@H](CCCCN)NC(=O)[C@H](Cc2c[nH]cn2)NC(=O)[C@H]([C@@H](C)O)NC(=O)[C@H](CCCNC(=N)N)NC(=O)[C@H](CO)NC3=O)NC(=O)[C@H](CCCCN)NC(=O)[C@H](CC(=O)O)NC(=O)[C@H](CC(N)=O)NC(=O)[C@H](CC(=O)O)NC(=O)[C@@H]2CCCN2C1=O` [compound 434] (H-DCLGAMRKCIPDNDKCCRPNLVCSRTHKACKYVF-NH2; disulfide 2-17, 9-23, 16-30), for which the IC50 at hNav1.7 (use-dependent block), on hNav1.3 (use-dependent block) and on hNav1.5 (use-dependent block) was > 5 µM throughout.

Turning to `C#CCCC(=O)NCCCC[C@@H]1NC(=O)[C@H](CC(=O)O)NC(=O)[C@@H]2CCCN2C(=O)[C@H]([C@@H](C)CC)NC(=O)[C@@H]2CSSC[C@@H]3NC(=O)[C@H](C(C)C)NC(=O)[C@H](CC(C)C)NC(=O)[C@H](CC(N)=O)NC(=O)[C@@H]4CCCN4C(=O)[C@H](CCCNC(=N)N)NC(=O)[C@H](CSSC[C@H](NC(=O)[C@@H](N)CC(=O)O)C(=O)N[C@@H](CC(C)C)C(=O)NCC(=O)N[C@@H](CC)C(=O)N[C@@H](CC(C)C)C(=O)N[C@@H](CCCNC(=N)N)C(=O)N[C@@H](CCCCN)C(=O)N2)NC(=O)[C@H](CSSC[C@@H](C(=O)N[C@@H](CCCCN)C(=O)N[C@@H](Cc2ccc(O)cc2)C(=O)N[C@H](C(=O)N[C@@H](Cc2ccccc2)C(N)=O)C(C)C)NC(=O)[C@H](Cc2c[nH]c4ccccc24)NC(=O)[C@H](CCC(=O)O)NC(=O)[C@H](Cc2c[nH]cn2)NC(=O)[C@H]([C@@H](C)O)NC(=O)[C@H](CCCNC(=N)N)NC(=O)[C@H](CO)NC3=O)NC(=O)[C@H](CCCCN)NC(=O)[C@H](CC(=O)O)NC1=O` [compound 808] (H-DCLG[Abu]LRKCIPDK(Pent4ynoyl)DKCCRPNLVCSRTHEWCKYVF-NH2; disulfide 2-17, 9-23, 16-30), the IC50 at hNav1.7 (use-dependent block) was 1.8 µM; at hNav1.3 (use-dependent block) it was 4.1 µM; at hNav1.5 (use-dependent block) it was > 5 µM.
